Each block holds one compound with its values, some of them ahead of it. Activity calls are given as the source filed them. The rule behind the calls is not given here.
Columns and labels:
[1] = Intrinsic clearance in rat liver microsomes at 1 uM peincubated for 10 mins followed by NADPH addition and measured 60 mins by LC-MS/MS analysis; type: ADME, Microsome; conditions: time 70 min, read-out: CLH
[2] = Half life in rat liver microsomes at 1 uM peincubated for 10 mins followed by NADPH addition and measured 60 mins by LC-MS/MS analysis; type: ADME, Microsome; conditions: time 70 min
[3] = Protein binding in mouse plasma at 1 uM; type: ADME, cell-free; conditions: read-out: PPB (converted)
[4] = target: T1, C-X-C chemokine receptor type 4 (Homo sapiens, UniProt P61073); assay: Inhibition of APC-conjugated anti-human CXCR4 clone 12G5 binding to CXCR4 in human HPBALL cells measured after 3 hrs by FACS analysis; type: cell-based
T1 sequence (P61073 whole entry): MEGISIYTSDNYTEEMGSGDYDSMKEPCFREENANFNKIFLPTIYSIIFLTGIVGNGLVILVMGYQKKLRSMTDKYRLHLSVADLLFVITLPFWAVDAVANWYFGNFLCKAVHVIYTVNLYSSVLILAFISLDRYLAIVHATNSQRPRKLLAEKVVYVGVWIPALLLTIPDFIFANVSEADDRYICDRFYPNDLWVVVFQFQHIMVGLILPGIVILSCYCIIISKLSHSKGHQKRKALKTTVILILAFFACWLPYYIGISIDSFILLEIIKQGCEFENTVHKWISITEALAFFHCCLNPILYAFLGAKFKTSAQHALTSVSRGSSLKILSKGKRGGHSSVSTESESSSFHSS

[5] = target: T1, C-X-C chemokine receptor type 4; assay: Antagonist activity at CXCR4 in human CD4-positive T cells assessed as inhibition of CXCL12-induced cytosolic calcium flux preincubated for 20 mins followed by CXCL12 addition by calcium 4 dye based FLIPR TETRA analysis; type: functional, cell-based, T cell
[6] = 1-Octanol/water partition coefficient, log P of compound at pH 7.4 measured after 24 hrs by shake flask method; type: physicochemical
[7] = Dissociation constant, basic pKa of compound by titration method; type: physicochemical
[8] = target: T2, C-X-C chemokine receptor type 1 (Homo sapiens) (UniProt P25024); assay: Antagonist activity at CXCR1 (unknown origin) expressed in HEK293 cells assessed as suppression of IL-8-induced inhibition of forskolin-induced cAMP formation up to 10 uM preincubated for 15 mins followed by forskolin and IL-8 stimulation and measured after 15 mins by cAMP-d2 and Eu-Anti-cAMP based fluorescence assay; type: functional, cell-based; conditions: dose microM <=10, time 30.0 min
T2 sequence (whole entry): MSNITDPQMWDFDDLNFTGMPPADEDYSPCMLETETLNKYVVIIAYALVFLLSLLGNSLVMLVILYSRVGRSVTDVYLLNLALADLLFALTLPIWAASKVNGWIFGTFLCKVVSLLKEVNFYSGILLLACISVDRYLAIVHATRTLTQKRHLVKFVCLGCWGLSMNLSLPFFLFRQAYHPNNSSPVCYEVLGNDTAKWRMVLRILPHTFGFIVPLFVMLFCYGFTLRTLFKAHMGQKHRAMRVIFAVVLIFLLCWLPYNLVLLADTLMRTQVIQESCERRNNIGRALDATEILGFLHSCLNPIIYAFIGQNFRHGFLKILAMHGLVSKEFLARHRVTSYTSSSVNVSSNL

[9] = target: T3, C-C chemokine receptor type 6 (Homo sapiens) (UniProt P51684); assay: Antagonist activity at CCR6 in human CD4-positive T cells assessed as inhibition of CCL20-induced cytosolic calcium flux up to 10 uM by calcium 4 dye based FLIPR TETRA analysis; type: functional; conditions: T cell, dose microM <=10
T3 sequence (whole entry): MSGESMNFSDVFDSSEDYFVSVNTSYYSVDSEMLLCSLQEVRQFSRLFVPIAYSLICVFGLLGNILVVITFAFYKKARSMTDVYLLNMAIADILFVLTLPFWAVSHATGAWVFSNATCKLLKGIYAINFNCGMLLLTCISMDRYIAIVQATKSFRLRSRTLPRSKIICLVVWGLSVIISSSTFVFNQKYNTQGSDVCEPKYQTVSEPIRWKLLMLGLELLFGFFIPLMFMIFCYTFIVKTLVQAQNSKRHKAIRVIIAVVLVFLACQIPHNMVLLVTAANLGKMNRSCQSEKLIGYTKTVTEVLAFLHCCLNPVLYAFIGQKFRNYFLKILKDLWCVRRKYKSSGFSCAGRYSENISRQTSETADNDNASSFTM

[10] = target: T1, C-X-C chemokine receptor type 4; assay: Antagonist activity at CXCR4 in human MDA-MB-231 cells assessed as inhibition of CXCL12-induced cell migration at 100 nM measured after 24 hrs by crystal violet staining based matrigel invasion assay; conditions: filed as antagonist
L929 = assay: Cytotoxicity against mouse L929 cells assessed as reduction in cell proliferation up to 1000 nM by ATP-based celltiter-glo luminescent assay
MEF = assay: Cytotoxicity against MEF cells assessed as reduction in cell proliferation up to 1000 nM by ATP-based celltiter-glo luminescent assay; conditions: mouse
[11] = Cytotoxicity against […] Hepa1-6 cells assessed as reduction in cell proliferation up to 1000 nM by ATP-based celltiter-glo luminescent assay
MDA-MB-231 = assay: Cytotoxicity against human MDA-MB-231 cells assessed as reduction in cell proliferation up to 1000 nM by ATP-based celltiter-glo luminescent assay
CYP1A2 = target: T4, CYP1A2 (Homo sapiens, UniProt P05177); assay: Inhibition of CYP1A2 in human liver microsomes at 10 uM using phenacetin as substrate preincubated for 10 mins followed by NADPH addition measured after 10 mins by LC-MS/MS analysis relative to control; type: ADME; conditions: probe phenacetin, time 20 min
T4 sequence (P05177 whole entry): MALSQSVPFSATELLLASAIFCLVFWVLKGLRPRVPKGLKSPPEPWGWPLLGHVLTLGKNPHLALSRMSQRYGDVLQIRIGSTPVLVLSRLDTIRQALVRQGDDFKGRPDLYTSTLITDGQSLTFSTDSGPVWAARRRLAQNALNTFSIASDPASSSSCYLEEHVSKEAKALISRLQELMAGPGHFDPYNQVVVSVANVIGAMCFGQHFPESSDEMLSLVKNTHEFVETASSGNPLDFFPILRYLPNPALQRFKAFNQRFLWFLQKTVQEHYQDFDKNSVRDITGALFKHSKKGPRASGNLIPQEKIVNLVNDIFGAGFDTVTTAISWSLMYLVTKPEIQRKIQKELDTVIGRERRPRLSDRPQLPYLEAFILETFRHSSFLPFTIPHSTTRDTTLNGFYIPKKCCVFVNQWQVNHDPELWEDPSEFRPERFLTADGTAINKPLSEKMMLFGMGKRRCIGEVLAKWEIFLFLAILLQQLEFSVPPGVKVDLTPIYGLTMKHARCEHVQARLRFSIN

CYP2C9 = CYP2C9 (Homo sapiens, UniProt P11712); assay: Inhibition of CYP2C9 in human liver microsomes at 10 uM using tolbutamide as substrate preincubated for 10 mins followed by NADPH addition measured after 10 mins by LC-MS/MS analysis relative to control; type: ADME; conditions: probe tolbutamide
Chain of CYP2C9 (P11712 whole entry): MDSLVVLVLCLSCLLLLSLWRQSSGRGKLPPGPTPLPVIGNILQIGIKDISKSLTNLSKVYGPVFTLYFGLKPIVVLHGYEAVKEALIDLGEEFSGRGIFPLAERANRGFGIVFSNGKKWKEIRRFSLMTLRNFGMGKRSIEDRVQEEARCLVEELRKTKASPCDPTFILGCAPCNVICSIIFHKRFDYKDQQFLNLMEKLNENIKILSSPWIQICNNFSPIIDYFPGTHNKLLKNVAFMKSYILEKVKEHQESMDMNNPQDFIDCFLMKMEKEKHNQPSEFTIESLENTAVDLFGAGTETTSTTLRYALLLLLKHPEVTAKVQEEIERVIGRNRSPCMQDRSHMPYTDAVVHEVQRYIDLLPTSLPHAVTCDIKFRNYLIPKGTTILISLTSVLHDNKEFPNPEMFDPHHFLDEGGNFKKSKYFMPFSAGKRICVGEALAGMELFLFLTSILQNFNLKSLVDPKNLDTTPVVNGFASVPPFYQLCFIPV

CYP2C19 = CYP2C19 (Homo sapiens, UniProt P33261); assay: Inhibition of CYP2C19 in human liver microsomes at 10 uM using S-mephenytoin as substrate preincubated for 10 mins followed by NADPH addition measured after 10 mins by LC-MS/MS analysis relative to control; type: ADME; conditions: probe S-mephenytoin, time 20 min
Chain of CYP2C19 (P33261 whole entry): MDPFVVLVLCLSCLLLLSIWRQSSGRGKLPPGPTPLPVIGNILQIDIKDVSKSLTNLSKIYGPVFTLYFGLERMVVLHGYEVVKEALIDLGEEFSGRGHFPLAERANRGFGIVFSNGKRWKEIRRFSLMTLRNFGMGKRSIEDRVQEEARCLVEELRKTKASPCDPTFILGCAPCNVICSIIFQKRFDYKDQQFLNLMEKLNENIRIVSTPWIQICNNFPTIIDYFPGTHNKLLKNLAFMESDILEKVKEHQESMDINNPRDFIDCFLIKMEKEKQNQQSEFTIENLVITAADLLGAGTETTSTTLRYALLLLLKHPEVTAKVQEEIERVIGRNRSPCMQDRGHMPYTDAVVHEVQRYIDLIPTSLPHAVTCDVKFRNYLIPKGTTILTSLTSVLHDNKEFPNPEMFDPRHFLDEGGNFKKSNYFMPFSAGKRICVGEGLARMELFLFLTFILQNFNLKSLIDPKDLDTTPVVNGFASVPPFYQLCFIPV

CYP2D6 = CYP2D6 (Homo sapiens, UniProt P10635); assay: Inhibition of CYP2D6 in human liver microsomes at 10 uM using dextromethorphan as substrate preincubated for 10 mins followed by NADPH addition measured after 10 mins by LC-MS/MS analysis relative to control; type: ADME; conditions: probe dextromethorphan, time 20 min
Chain of CYP2D6 (P10635 whole entry): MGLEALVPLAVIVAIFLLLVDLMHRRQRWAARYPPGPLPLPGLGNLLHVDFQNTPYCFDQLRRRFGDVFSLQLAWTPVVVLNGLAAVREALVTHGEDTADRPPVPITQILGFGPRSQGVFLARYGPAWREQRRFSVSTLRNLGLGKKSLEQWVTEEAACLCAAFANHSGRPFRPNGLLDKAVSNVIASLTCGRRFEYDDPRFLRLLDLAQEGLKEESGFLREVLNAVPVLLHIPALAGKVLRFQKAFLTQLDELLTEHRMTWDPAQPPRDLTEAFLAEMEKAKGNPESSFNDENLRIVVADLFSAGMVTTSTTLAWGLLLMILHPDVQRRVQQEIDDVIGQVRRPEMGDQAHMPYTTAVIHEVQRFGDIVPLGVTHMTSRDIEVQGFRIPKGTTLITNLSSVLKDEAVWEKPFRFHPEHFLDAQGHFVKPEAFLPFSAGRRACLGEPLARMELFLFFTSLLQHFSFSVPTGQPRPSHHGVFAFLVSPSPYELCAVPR

CYP3A4 [12] = target: T5, CYP3A4 (Homo sapiens, UniProt P08684); assay: Inhibition of CYP3A4 in human liver microsomes at 10 uM using midazolam as substrate preincubated for 10 mins followed by NADPH addition measured after 10 mins by LC-MS/MS analysis relative to control; type: ADME; conditions: probe midazolam, time 20 min
T5 sequence (P08684 whole entry): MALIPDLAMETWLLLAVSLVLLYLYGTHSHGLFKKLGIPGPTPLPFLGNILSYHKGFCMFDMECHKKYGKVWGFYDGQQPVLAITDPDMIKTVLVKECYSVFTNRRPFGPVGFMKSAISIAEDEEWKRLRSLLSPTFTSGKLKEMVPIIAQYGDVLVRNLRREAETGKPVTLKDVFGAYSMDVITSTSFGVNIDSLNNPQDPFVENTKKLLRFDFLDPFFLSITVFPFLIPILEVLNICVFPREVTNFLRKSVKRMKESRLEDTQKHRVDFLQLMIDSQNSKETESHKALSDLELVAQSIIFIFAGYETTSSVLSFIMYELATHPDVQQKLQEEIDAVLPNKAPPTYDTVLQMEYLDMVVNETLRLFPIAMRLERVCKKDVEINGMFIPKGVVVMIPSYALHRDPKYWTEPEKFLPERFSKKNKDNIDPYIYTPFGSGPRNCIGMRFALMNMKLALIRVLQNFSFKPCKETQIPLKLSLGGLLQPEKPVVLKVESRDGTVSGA

CYP3A4 [13] = target: T5, CYP3A4; assay: Inhibition of CYP3A4 in human liver microsomes at 10 uM using testosterone as substrate preincubated for 10 mins followed by NADPH addition measured after 10 mins by LC-MS/MS analysis relative to control; type: ADME; conditions: probe testosterone, time 20 min
[14] = target: Voltage-gated inwardly rectifying potassium channel KCNH2 (Homo sapiens, UniProt Q12809); assay: Inhibition of human ERG stably expressed in CHO cells at -80 mV holding potential measured after 4 mins by Qpatch electrophysiological assay; type: cell-based
Chain of Voltage-gated inwardly rectifying potassium channel KCNH2 (Q12809 whole entry): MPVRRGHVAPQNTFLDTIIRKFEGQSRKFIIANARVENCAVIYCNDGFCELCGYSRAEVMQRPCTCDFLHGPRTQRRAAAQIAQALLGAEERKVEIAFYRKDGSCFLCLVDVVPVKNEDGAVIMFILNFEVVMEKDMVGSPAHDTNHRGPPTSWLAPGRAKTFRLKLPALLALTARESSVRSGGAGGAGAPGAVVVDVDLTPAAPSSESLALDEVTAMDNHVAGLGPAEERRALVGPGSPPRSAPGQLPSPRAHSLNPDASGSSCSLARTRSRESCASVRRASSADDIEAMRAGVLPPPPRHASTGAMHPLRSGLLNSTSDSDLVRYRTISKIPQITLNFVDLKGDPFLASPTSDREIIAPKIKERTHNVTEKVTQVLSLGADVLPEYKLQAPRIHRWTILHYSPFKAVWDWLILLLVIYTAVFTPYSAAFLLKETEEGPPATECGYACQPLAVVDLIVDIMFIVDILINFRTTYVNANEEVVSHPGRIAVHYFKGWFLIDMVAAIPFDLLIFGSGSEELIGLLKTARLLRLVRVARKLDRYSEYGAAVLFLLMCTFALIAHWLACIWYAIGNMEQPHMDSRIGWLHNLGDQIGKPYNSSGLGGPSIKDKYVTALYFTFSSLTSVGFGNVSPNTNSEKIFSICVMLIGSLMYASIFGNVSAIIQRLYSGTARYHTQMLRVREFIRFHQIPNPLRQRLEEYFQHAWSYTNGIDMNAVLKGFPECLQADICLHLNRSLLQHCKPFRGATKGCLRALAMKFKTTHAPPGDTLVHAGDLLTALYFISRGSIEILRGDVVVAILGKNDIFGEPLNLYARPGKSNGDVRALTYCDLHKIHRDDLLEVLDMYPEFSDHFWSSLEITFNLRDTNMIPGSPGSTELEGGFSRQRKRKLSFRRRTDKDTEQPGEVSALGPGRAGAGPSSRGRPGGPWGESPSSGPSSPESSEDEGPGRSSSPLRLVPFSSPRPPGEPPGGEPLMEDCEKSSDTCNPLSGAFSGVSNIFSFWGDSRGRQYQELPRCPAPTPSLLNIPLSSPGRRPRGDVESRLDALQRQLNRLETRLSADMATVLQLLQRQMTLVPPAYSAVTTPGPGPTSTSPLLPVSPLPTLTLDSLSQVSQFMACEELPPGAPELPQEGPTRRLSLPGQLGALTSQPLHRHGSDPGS

[15] = Protein binding in rat plasma at 1 uM; type: ADME, cell-free; conditions: read-out: PPB (converted)
[16] = Protein binding in human plasma at 1 uM; type: ADME, cell-free; conditions: read-out: PPB (converted)
[17] = Intrinsic clearance in human liver microsomes at 1 uM peincubated for 10 mins followed by NADPH addition and measured 60 mins by LC-MS/MS analysis; type: ADME, Microsome; conditions: time 70 min, read-out: CLH
[18] = Half life in human liver microsomes at 1 uM peincubated for 10 mins followed by NADPH addition and measured 60 mins by LC-MS/MS analysis; type: ADME, Microsome; conditions: time 70 min
Lewis lung carcinoma = assay: Antimetastatic activity against RFP-labelled LL2 cells allografted in C57BL6 mouse assessed as reduction in metastatic lung nodules at 70 mg/kg, ip treated 30 mins prior to tumor implantation followed by redosing at 3 hrs post tumor implantation and subsequent daily dosing for 18 days by fluorescence assay; type: functional, organism-based; conditions: time 18.0 day

Structure (SMILES): Cc1nc(CN2CCC[C@H]2c2ncccc2C)cc(N2CCN(C)CC2)n1
fraction unbound at 1 µM [3]: 0.67 | CLint scaled at 1 µM [1]: 123 mL/min/kg | half-life at 1 µM [2]: 20.2 min | IC50 [4]: 79 nM | IC50 [5]: 0.25 nM | logD at 24 h [6]: 1.12 | pKa [7]: 8.2 | inhibition [8]: inactive | inhibition [9]: inactive | inhibition [10]: Active | Activity (L929): Non-Toxic | Activity (MEF): Non-Toxic | Activity [11]: Non-Toxic | Activity (MDA-MB-231): Non-Toxic | inhibition at 10 min, 10 µM (CYP1A2): -6% | inhibition at 10 min, 10 µM (CYP2C9): 1% | inhibition at 10 min, 10 µM (CYP2C19): 11% | inhibition at 10 min, 10 µM (CYP2D6): -5% | inhibition at 10 min, 10 µM (CYP3A4 [12]): 7% | inhibition at 10 min, 10 µM (CYP3A4 [13]): -4% | IC50 [14]: > 30000 nM | fraction unbound at 1 µM [15]: 0.56 | fraction unbound at 1 µM [16]: 0.05 | CLint scaled at 1 µM [17]: 66 mL/min/kg | half-life at 1 µM [18]: 26.2 min | Activity (Lewis lung carcinoma): Active

Structure (SMILES): Cc1ccc([C@@H]2CCCN2Cc2cc(N3CCN(C)CC3)nc(C)n2)nc1
IC50 [5]: 4.9 nM

Structure (SMILES): Cc1nc(CN2CCC[C@@H]2c2ccccn2)cc(N2CCN(C)CC2)n1
IC50 [4]: > 10000 nM

Structure (SMILES): c1cc(CN2CCCNCCNCCCNCC2)ccc1CN1CCCNCCNCCCNCC1
inhibition [10]: Active

Structure (SMILES): Cc1nc(CN2CCC[C@H]2c2ncccc2C)cc(N2CCC(N(C)C)CC2)n1
IC50 [5]: 13 nM

Structure (SMILES): Cc1nc(CN2CCC[C@H]2c2ccccn2)cc(N2CCN(C)CC2)n1
IC50 [4]: 220 nM | IC50 [5]: 2.7 nM

More lines, now with the values ahead:

CLint scaled at 1 µM [1]: 1130 mL/min/kg | half-life at 1 µM [2]: 2.2 min
Structure (SMILES): COc1nc(CN(C)C2CCCc3cccnc32)cc(N2CCN(C)CC2)n1 (stereo unspecified)

CLint scaled at 1 µM [1]: 1570 mL/min/kg | half-life at 1 µM [2]: 1.59 min
Structure (SMILES): Cc1nc(CN(C)[C@H]2CCCc3cccnc32)cc(N2CCN(C)CC2)n1

CLint scaled at 1 µM [1]: 2090 mL/min/kg | half-life at 1 µM [2]: 1.19 min
Structure (SMILES): CCc1nc(CN(C)C2CCCc3cccnc32)cc(N2CCN(C)CC2)n1 (stereo unspecified)

CLint scaled at 1 µM [1]: 1550 mL/min/kg | half-life at 1 µM [2]: 1.6 min
Structure (SMILES): Cc1nc(CN(C)[C@H]2CCCc3cccnc32)cc(N2CCN(C)[C@@H](C)C2)n1

CLint scaled at 1 µM [1]: 2180 mL/min/kg | half-life at 1 µM [2]: 1.14 min
Structure (SMILES): CCN1CCN(c2cc(CN(C)[C@H]3CCCc4cccnc43)nc(C)n2)CC1

CLint scaled at 1 µM [1]: 1640 mL/min/kg | half-life at 1 µM [2]: 1.51 min
Structure (SMILES): Cc1nc(CN(C)C2CCCc3cccnc32)c(C#N)c(N2CCN(C)CC2)n1 (stereo unspecified)

CLint scaled at 1 µM [1]: 1280 mL/min/kg | half-life at 1 µM [2]: 1.95 min
Structure (SMILES): CCN(Cc1cc(N2CCN(C)CC2)nc(C)n1)C1CCCc2cccnc21 (stereo unspecified)
